Patent US20100216191A1, “Method for Manufacturing a Modified Peptide” (PROCOMCURE BIOTECH GMBH, priority 2007, published 2010)
Entries after “also recorded” stand apart in the source; their conditions may differ. Read-outs that look alike come from different tables or passages of the source. Where no end group is shown, it is not given here.

Legend:
ClfB [1] = target: T1, ClfB (Staphylococcus aureus, UniProt Q99R07); settings: Y2H-strain AH109, prey plasmid pGADT7
Method: All constituents of this mini-library are tested directly in a binary manner against ClfB. • The identified interactions between ClfB and KRT6A, KRT8, and KRT5 (cf Table 1) were used for the experiment. • The interacting KRT-genes were compared in order to identify the plasmid harbouring the shortest KRT gene-fragment from the initial Y2H-screen. […] The clone with the smallest ClfB interacting DNA-insert is called clone clb10.1 • Clone clb10.1 was used as template for primer-design. PCR-primers were designed to lead to N-terminal truncations of the resulting protein. The clb10.1 DNA-template contains a 330 base pair DNA-fragment of the gene coding region of KRT8 (corresponds to a peptide of 110 amino acids). • The first primer-pair binds 45 bp downstream of the clb10.1 DNA-template resulting in a 45 by shortened DNA-fragment after PCR (the generated PCR-product contains a gene coding sequence of 285 bp). The resulting peptide encoded from this DNA is 95 amino acids. The PCR-product was cloned into an empty Y2H-prey plasmid, pGADT7. The plasmid was sequenced and the clone was named Frag1. • The second primer pair amplifies a PCR-product, which contains a gene coding sequence of 144 bp, which corresponds to a peptide of 48 amino acids. The PCR-product was cloned into an empty Y2H-prey plasmid, pGADT7. The plasmid was sequenced and the clone was named Frag2. • The third primer pair still amplifies the same gene coding sequence of KRT8, however the 3-primed untranslated region was removed. The 3-primed untranslated region is 241 bp long and not relevant for the interaction with ClfB protein. The removal of this 241 region was achieved by using a PCR-reverse primer, which binds upstream of this region in the DNA-template of clone 10.1. The resulting peptide, when translated from this PCR-product is still 48 amino acids. The PCR-product was cloned into an empty Y2H-prey plasmid, pGADT7. The plasmid was sequenced and the clone was named Frag2-CDS. • The fourth primer pair amplifies a PCR-product of 84 bp, which when translated into a protein will correspond to a peptide of 28 amino acids. The PCR-product was cloned into an empty Y2H-prey plasmid, pGADT7. The plasmid was sequenced and the clone was named Frag2-binding domain. • The fifth primer pair amplifies a PCR-product of 78 bp; when translated into a protein this fragment will correspond to a peptide of 26 amino acids. The PCR-product was cloned into an empty Y2H-prey plasmid, pGADT7. The plasmid was sequenced and the clone was named Frag3. • After PCR, the fragments were separated by gel-electrophoresis and the DNA was extracted from the gels by a commercial gel-extraction kit. The DNA was cut by restriction enzymes and cloned into the Y2H-plasmid pGADT7. The cloning reaction was introduced by plasmid transformation into E. coli. The transformation mixture was plated out onto plasmid-selective media containing the appropriate antibiotic. Growing colonies were inoculated into liquid media containing the same antibiotic, and the E. coli liquid culture was plasmid-purified and sequenced for confirmation. • Pure plasmid DNA from all constructs (Frag1, Frag2, Frag2-CDS, Frag2-binding domain, Frag3, clb10.1 clone, as well as full-length KRT6A, full-length KRT8, and full-length KRT5) were mixed to obtain a mini-library of different shortened fragments from the same interactor of ClfB.

ClfB [2] = target: T1, ClfB; type: cell-based, S. aureus; set-up: expressed in transfected cells; host or cells: yeast Y2H reporter strain AH109; settings: among 100 clones after two rounds of selection against ClfB
GST-tagged FnbB = experiment: Pull-down with GST-tagged FnbB, proteins from rabbit reticulocyte translation system; type: binding, S. aureus; settings: cell-free protein translation system; GST alone as negative control
Text: Recombinant proteins were produced from the isolated plasmids from the PPI-partners in a rabbit reticulocyte-based translation system and additionally in E. coli cells. The produced recombinant proteins were used for pull-down and immunoprecipitation experiments.

ClfB [3] = target: T1, ClfB; settings: for Relative interaction strength to ClfB compared to the original binder: X-Gal overlay assays and growth strength on 3AT media, AH109 cells; for More beta galactosidase in comparison to the original binder: X-Gal overlay, equal numbers of cells
His-tagged ClfB protein [4] = target: T2, His-tagged ClfB protein (Staphylococcus aureus, UniProt Q99R07); settings: 5 μg spotted onto membrane, His-tag antibody detection
T2 sequence (Q99R07 45-841): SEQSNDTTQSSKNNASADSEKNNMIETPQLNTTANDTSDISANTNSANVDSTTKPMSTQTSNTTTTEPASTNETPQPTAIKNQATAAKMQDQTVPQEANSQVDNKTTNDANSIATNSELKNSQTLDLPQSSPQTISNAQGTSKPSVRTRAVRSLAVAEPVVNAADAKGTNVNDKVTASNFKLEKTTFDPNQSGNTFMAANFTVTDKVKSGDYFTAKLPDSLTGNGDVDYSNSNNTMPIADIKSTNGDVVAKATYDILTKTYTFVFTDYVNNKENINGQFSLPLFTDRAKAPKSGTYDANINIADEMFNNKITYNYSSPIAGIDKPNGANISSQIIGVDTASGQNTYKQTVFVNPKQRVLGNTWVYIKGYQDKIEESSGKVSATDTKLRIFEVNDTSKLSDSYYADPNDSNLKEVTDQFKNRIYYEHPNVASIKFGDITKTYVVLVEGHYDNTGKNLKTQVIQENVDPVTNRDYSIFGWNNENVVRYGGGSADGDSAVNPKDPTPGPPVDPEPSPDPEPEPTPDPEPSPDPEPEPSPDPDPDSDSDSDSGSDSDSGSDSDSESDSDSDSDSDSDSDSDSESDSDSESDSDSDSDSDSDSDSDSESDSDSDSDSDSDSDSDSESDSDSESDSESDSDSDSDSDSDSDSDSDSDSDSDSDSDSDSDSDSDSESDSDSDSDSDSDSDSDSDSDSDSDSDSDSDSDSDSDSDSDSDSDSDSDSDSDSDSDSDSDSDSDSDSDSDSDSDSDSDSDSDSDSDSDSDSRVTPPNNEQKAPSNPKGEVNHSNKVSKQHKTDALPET
Method: 7.1. […] This peptide was also synthesized.
Peptides were spotted onto a protein binding membrane and incubated with recombinant His-tagged ClfB protein. The irreversibly bound peptides can be targeted by additionally added ClfB. Bound ClfB protein is detected by a His-tag specific antibody (see FIG. 7).

[5] = target: binding of GST-tagged keratin fragment to ClfB-protein (Staphylococcus aureus, UniProt Q99R07); settings: 1 μM peptide; densitometry, ImageJ
Sequence of binding of GST-tagged keratin fragment to ClfB-protein (Q99R07 45-841): as above
Text: 7.2. […] Relative changes in pulled-down GST-tagged keratin fragment is quantified by densitometry using a flatbed scanner and the ImageJ software, provided by Wayne Rasband, National Institutes of Health. (ImageJ: http://rsb.info.nih.gov/ij/) See FIGS. 8 and 9

living S. aureus cells = experiment: Adhesion assay with living S. aureus cells, crystal violet, absorbance at 595 nm; type: cell-based; settings: 1 μg coated onto microwell-plates
Method: • All genes coding for the used recombinant proteins were cloned into the plasmid pDEST15. […] This protein served as negative control 1 • Affinity purified, recombinantly in E. coli produced GST-tagged Frag2-CDS (49 ng/μl). the amino acid sequence of Frag2-CDS is N-[…]-C (SEQ ID NO: 71) • Affinity purified, recombinantly in E. coli produced GST-tagged S. aureus protein, methionine sulfoxide reductase msrB, NCBI protein GI:54041496, was diluted to a final concentration of 30 ng/μl. This protein served as negative control 2 • Affinity purified, recombinantly in E. coli produced GST-tagged S. aureus protein, NADPH-dependent 7-cyano-7-deazaguanine reductase, NCBI protein GI:81781951, was diluted to a final concentration of 61 ng/μl. This protein served as negative control 3 • Human aortic elastin protein, 1 mg elastin was purchased from the company Elastin Products company, product number HA587 and solubilized in 1 ml H2O to get the final concentration of 1 μg/μl. This protein served as positive control 1 because elastin protein is known to bind to S. aureus. • Human fibrinogen protein was purchased from the company Enzyme Research Laboratories, product number FIB 1 3120L; […] was solubilized in 50 ml H2O to get the final concentration of 2 μg/μl. […]

[6] = target: T3, binding domain of yeast protein GAL4 (Saccharomyces cerevisiae, UniProt P04386); experiment: Y2H specificity test against binding domain of GAL4; type: cell-based; settings: Y2H-strain AH109
T3 construct: expressed in transfected cells; host or cells: yeast Y2H reporter strain AH109
T3 sequence (P04386 11-38): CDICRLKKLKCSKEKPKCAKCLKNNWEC

[7] = target: T4, activation domain of yeast protein GAL4 (Saccharomyces cerevisiae, UniProt P04386); experiment: Y2H specificity test against activation domain of GAL4; type: cell-based; settings: Y2H-strain AH109
T4 construct: expressed in transfected cells; host or cells: yeast Y2H reporter strain AH109
T4 sequence (P04386 768-881): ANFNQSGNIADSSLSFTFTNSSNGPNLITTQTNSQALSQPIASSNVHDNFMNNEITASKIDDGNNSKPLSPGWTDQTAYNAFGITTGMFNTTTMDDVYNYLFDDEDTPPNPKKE

[8] = target: T5, Frag2-binding domain peptide (Homo sapiens, UniProt P05787); experiment: Y2H test of peptide binding to the same peptide (homodimerization, stickiness); type: cell-based; settings: Y2H-strain AH109
T5 construct: expressed in transfected cells; host or cells: yeast Y2H reporter strain AH109
T5 sequence (P05787 437-464 limits assumed): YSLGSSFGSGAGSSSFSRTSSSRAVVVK

BSA = BSA (Bos taurus, UniProt P02769); experiment: In vitro pull-down with BSA coated beads; type: binding; settings: detection with anti-GST antibodies; listed as GST-tagged peptide of 48-amino acids
Text: (§1) 6.2.1. Recombinant Protein Production • The DNA-sequence coding for ClfB was cloned into a plasmid PET160 (a plasmid suitable for recombinant protein expression in E. coli and HIS-tag purification). The plasmid harbours a so-called HIS-tag, which is a DNA sequence coding for a stretch of six histidine residues. […]
(§2) 6.2.2. […] The GST-tagged peptide was purified by using a commercial GST-tag purification kit. • After several washing steps the remaining proteins are eluted from the magnetic beads • The eluted protein/peptide mixture is loaded on a SDS-page gel, separated, transferred onto a membrane, and probed with GST-tag specific antibodies and bound antibodies are detected by chemiluminescence signals on chemiluminescence films. • The following combinations of recombinant proteins/peptides were used in the pull-downs: • a) BSA+GST-tagged 48-aminoacid long peptide • b) His-tagged ClfB+GST-tagged 48-amino acid-peptide • c) Purified GST+GST-tagged 48-amino acid-peptide

His-tagged ClfB protein [9] = target: T2, His-tagged ClfB protein; settings: detection with anti-GST antibodies; listed as GST-tagged Keratin 8 protein fragment
Text: as §1, §2

GST = target: T6, GST (Schistosoma japonicum, UniProt P08515); experiment: In vitro pull-down with GST coated beads; type: binding; settings: detection with anti-GST antibodies; listed as GST-tagged peptide of 48-amino acids
T6 construct: purchased
T6 sequence (P08515 whole entry): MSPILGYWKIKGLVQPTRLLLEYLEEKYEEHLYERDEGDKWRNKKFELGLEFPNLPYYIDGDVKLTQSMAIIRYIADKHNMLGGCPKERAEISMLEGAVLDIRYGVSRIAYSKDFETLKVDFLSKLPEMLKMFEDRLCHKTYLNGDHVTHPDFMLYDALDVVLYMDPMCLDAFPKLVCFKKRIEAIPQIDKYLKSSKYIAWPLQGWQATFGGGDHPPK
Text: as §1, §2

T1 sequence (Q99R07 45-841): as the sequence (Q99R07 45-841) above

YSLGSSFGSGAGSSSFSRTSSSRAVVVKKIETRDGKLVSESSDVLPK [Frag 2-CDS]
Interaction capable with ClfB in the Y2H-system (ClfB [1]): Yes
Identified X-times by sequencing (ClfB [2]): 28
Identified X-times by sequencing (ClfB [2]; listed as Frag2-CDS): 28

CCT—beta: human protein interacting with FnbB, NCBI Protein GI 2559012
Co-purified with GST-tagged FnbB (GST-tagged FnbB): could be co-purified

YSLGSSFGSGAGSSSSSRTSPSRAVVVK [more stronger binder]
Relative interaction strength to ClfB compared to the original binder (ClfB [3]): binds with increased strength
More beta galactosidase in comparison to the original binder (ClfB [3]): ≥ 100%

lysosomal sialidase NEU 1: human protein interacting with FnbB, NCBI Protein GI 30583251
Co-purified with GST-tagged FnbB (GST-tagged FnbB): could be co-purified

YSLGSSFGSGAGSSSLGRTSSSRAVVVK [stronger binder]
Relative interaction strength to ClfB compared to the original binder (ClfB [3]): binds with increased affinity
More beta galactosidase in comparison to the original binder (ClfB [3]): at least 50%

YSLGSSFGSGAGSSSFSRTSSSRAVVVKKIETRDGKLVSESSDVLPK [Frag 2]
Interaction capable with ClfB in the Y2H-system (ClfB [1]): Yes
Identified X-times by sequencing (ClfB [2]): 25

SYSLGSSFGSGAGSSSFSRTS [IPEP-21SA]
Binding of recombinant ClfB to spotted peptide (His-tagged ClfB protein [4]): could bind
Competitive inhibition of binding of GST-tagged keratin fragment to ClfB-protein [5]: ~40%
Binding to living pathogen cells (living S. aureus cells): binds strongly

YSLGSSFGSGAGSSSFSRTSSSRAVVVK [Frag 2-binding domain]
Interaction capable with ClfB in the Y2H-system (ClfB [1]): Yes
Interaction capable with ClfB in the Y2H-system (ClfB [1]; listed as Frag2-binding domain): still capable of interaction; also recorded: does only interact with ClfB protein
Interaction with the binding-domain of GAL4 protein [6]: neither interacts
Interaction with the activation domain of GAL4 protein [7]: neither interacts
Identified X-times by sequencing (ClfB [2]): 18
Interaction of the peptide with itself [8]: does not interact with itself

EQRGELAIKDANAKLSELEAAL [control peptide, reference compound]
Binding of recombinant ClfB to spotted peptide (His-tagged ClfB protein [4]): no binding was detected

RAVVVKKIETRDGKLVSESSDVLPK [Frag 3]
Interaction capable with ClfB in the Y2H-system (ClfB [1]): No
Identified X-times by sequencing (ClfB [2]): 0
Identified X-times by sequencing (ClfB [2]; listed as Frag3): No single clone

QELMNVKLALDIEIATYRKLLEGEESRLESGMQNMSIHTKTTSGYAGGLSSAYGGLTSPGLSYSLGSSFGSGAGSSSFSRTSSSRAVVVKKIETRDGKLVSESSDVLPK [Clone 10.1]
Interaction capable with ClfB in the Y2H-system (ClfB [1]): Yes
Identified X-times by sequencing (ClfB [2]): 8

YSLGSSFGSGAGSSSFSRTSSSRAVVVKKIETRDGKLVSESSDVLPK (also: fused to a dimerising Fc or GST (not shown)) [GST-tagged Frag2-CDS, Frag2-CDS peptide recombinantly produced in E. coli with N-terminally fused glutathione S-transferase]
Binding of recombinant ClfB to spotted peptide (His-tagged ClfB protein [4]): could bind
Pulled down by BSA coated beads (BSA): Neither BSA coated- nor GST coated magnetic beads could pull down; also recorded: neither a) BSA nor c) GST coated beads can pull-down
Pulled down (co-purified) with His-tagged ClfB protein (His-tagged ClfB protein [9]): could only be pulled down when His-tagged recombinant ClfB was present
Binding to living pathogen cells (living S. aureus cells): binds strongly
Pulled down by GST coated beads (GST): Neither BSA coated- nor GST coated magnetic beads could pull down; also recorded: neither a) BSA nor c) GST coated beads can pull-down

TYRKLLEGEESRLESGMQNMSIHTKTTSGYAGGLSSAYGGLTSPGLSYSLGSSFGSGAGSSSFSRTSSSRAVVVKKIETRDGKLVSESSDVLPK [Frag 1]
Interaction capable with ClfB in the Y2H-system (ClfB [1]): Yes
Identified X-times by sequencing (ClfB [2]): 12
